According to paper PMC12130509, “Development of a small compound that regulates the function of a maltodextrin-binding protein of Streptococcus pyogenes by multifaceted screenings” (Scientific Reports, 2025):

What was measured:
[1] = molecular target: T1, SPs0871 (Streptococcus pyogenes, UniProt A0A0H2UUQ6); test: MST binding analysis; settings: for concentration-dependent response by MST: 15.3 nM to 500 µM compound; for concentration-dependent response by MST / Kd: 100 nM SPs0871; for Kd: read-out: KD values calculated by MST analysis
Method: (§1) MST was performed on a Monolith NT.115 instrument using Monolith NT.115 Series, Premium Capillaries, and His-tagged SPs0871 was labeled using the Monolith His-Tag Labeling Kit RED-Tris-NTA 2nd Generation (NanoTemper Technologies GmbH, Munich, Germany). The final concentration of SPs0871 was 100 nM, and the final concentration of the dye was 5 nM. The buffer was PBS-T (PBS, 0.005% Tween 20), 5% DMSO. A range of concentrations of compounds (15.3 nM to 500 µM) was tested.

[2] = molecular target: T1, SPs0871; test: SPR analysis of binding to immobilized SPs0871 (Biacore T200); settings: for concentration-dependent response by SPR (derivatives, cross-validation): 3.125–200 µM
Method: The binding of maltotriose and compound derivatives to SPs0871 was assessed using a Biacore T200 instrument (Cytiva, Marlborough, MA, USA). SPs0871 was immobilized at 4300–4700 RU on the surface of a CM5 sensor chip (Cytiva) by the amine-coupling method according to the manufacturer’s instructions. The running buffer was phosphate buffered saline with Tween (PBS, 0.005% Tween 20), 5% DMSO. To measure the interaction of maltotriose with SPs0871, a range of concentrations of maltotriose (0.039–20 µM) were injected at a flow rate of 30 μL min^–1 with a 20 s association time and a 40 s dissociation time. To measure the interaction of compound derivatives with SPs0871, a range of concentrations of compound derivatives (3.125–200 µM) were injected at a flow rate of 30 μL min^–1 with a 20 s association time and a 40 s dissociation time. Data analysis was carried out using BIAevaluation software (Cytiva, version ver3.2.1, https://www.cytivalifesciences.com/ja/jp/support/software/biacore-downloads?_gl=1*18vz87l*_gcl_au*MjA3MjI1ODE4Ni4xNzQyOTU1NzY3*_ga*OTQ5NDM5MTMyLjE3NDI5NTU3Njg.*_ga_CS9H0CZBWW*MTc0NDQ0NjkwMy41LjEuMTc0NDQ0ODAwNC4wLjAuMA.). The KDs of the interactions were calculated from Scatchard plots.

[3] = tested on: MalE1; test: MST analysis of bacterial species specificity; format: binding, L. casei
From the text: Finally, to gain an insight into the specificity of the three compounds for bacterial species, we prepared MalE1 from L. casei as a recombinant protein and used MST to assess the binding of compounds 95,186, 95186b, and 95186c to MalE1.
(§2) The SPs0871 (including mutants) gene fragment encoding amino acids 27–415 was cloned into Escherichia coli expression vector pCold I (for MST) or pCold SUMO, in which the His6-SUMO-tag was introduced into the pCold I vector (Takara, Shiga, Japan). The same process was performed for MalE1 derived from the L. casei gene fragment encoding amino acids 28–410. The recombinant protein was expressed and purified as previously described.
as §1

[4] = tested on: S. pyogenes strain JRS4; test: Growth assay in CDM supplemented with maltotetraose, JRS4; format: cell-based, Streptococcus pyogenes; settings: for GAS growth: 0.5% maltotetraose, 1% DMSO, OD600
Method: (§3) Bacteria were incubated in a carbohydrate-free chemically defined medium (CDM) supplemented with maltotetraose, which is thought to be taken up only via the SPs0871 pathway. […] Further, we also evaluated the antibacterial effect of 95,186 against SSI-1 strain, which is isolated from a STSS patient.
(§4) JRS4 and SSI-1 were used as GAS strains. The medium used as well as the procedure up to the assay were the same as previously described. […] For SSI-1, an additional 0.1% glucose was added to the CDM medium containing maltotetraose. To confirm the bacteriostatic effect of compound 95,186, the bacterial culture incubated in CDM was inoculated into THY medium to achieve a final OD600 value of 0.01.

[5] = molecular target: T1, SPs0871; test: DSF, melting temperature of SPs0871; format: binding
From the text: In the subsequent DSF screening, we measured the Tm value of SPs0871 in the presence of each compound. We also evaluated the structural stabilizing effect of each compound by binding it to SPs0871, which reflected the binding of the compound in the ligand binding pocket and the intramolecular interaction network. We included SPs0871 without small compounds as a negative control in each screening plate. The difference between the Tm value for each compound and the highest negative control Tm value in the same plate was used as the activity value for each compound.
DSF was performed on a CFX Connect Real-Time System (Bio-Rad, Hercules, CA, USA). The buffer was 1 × PBS, 5% DMSO except an experiment to assess the change of Tm value in a sugar concentration-dependent manner (Figure S1), in which DMSO was not added into the buffer. In the initial screening, the final concentration of the compounds was 100 µM and the concentration of SPs0871 was a 2 μM. One thousandth of the sample volume of SYPRO Orange Protein Gel Stain (5000 × concentrated in DMSO; Invitrogen, Waltham, MA, USA) was added, and samples containing 5 × SYPRO Orange were loaded onto 96-well PCR Plates (Bio-Rad) for measurement. The denaturation of protein was observed via fluorescence emitted from SYPRO Orange upon absorption to the exposed hydrophobic surface.

[6] = molecular target: T1, SPs0871; test: SPR screening of direct binding to SPs0871 (Biacore 8K)
From the text: In parallel, we conducted SPR screening to evaluate the direct binding of compounds to SPs0871. We immobilized SPs0871 on a sensor chip, flowed each compound to the chip in sequence, and evaluated the response for each compound. The response derived from maltotriose binding was designated as the positive control, with a relative value 100, and the response derived from the injection of running buffer was designated as the negative control, with a relative value 0. The molecular weight corrected value for each compound was used as the activity value.
Direct binding of compounds to SPs0871 was examined using a Biacore 8 K instrument (Cytiva). SPs0871 was immobilized at 3500–5300 RU on the surface of a CM5 sensor chip (Cytiva) by the amine-coupling method according to the manufacturer’s instructions. The running buffer was PBS-T (PBS, 0.005% Tween 20), 5% DMSO. In the screening, the final concentration of each compound was 100 µM, and samples were injected at a flow rate of 30 μL min^–1 with a 30 s association time. To check the concentration dependency, a range of concentrations of the compounds (3.125–50 µM) were injected at a flow rate of 30 μL min^–1 with a 20 s association time and a 30 s dissociation time. […]

[7] = tested on: SPs0871 mutants (E146, K294, W256 mutated to alanine); test: MST binding to recombinant SPs0871 alanine mutants; design: species or system Streptococcus pyogenes
From the text: To assess whether 95,186 competes with the natural ligand maltotriose in binding to SPs0871, we conducted MST analysis in the presence or absence of maltotriose. […] When we performed additional docking calculations using the Glide docking program (Schrodinger, New York, NY, USA) to identify hotspot residues for the compound binding, E146 and K294 were predicted to form hydrogen bonds and W256 was predicted to form van der Waals interactions during compound binding (Fig. 4B,C). We validated these predictions using recombinant SPs0871 mutants in which these residues were mutated to alanine.
as §2
MST was performed on a Monolith NT.115 instrument using Monolith NT.115 Series, Premium Capillaries, and His-tagged SPs0871 was labeled using the Monolith His-Tag Labeling Kit RED-Tris-NTA 2nd Generation (NanoTemper Technologies GmbH, Munich, Germany). The final concentration of SPs0871 was 100 nM, and the final concentration of the dye was 5 nM. […]

[8] = tested on: SSI-1 strain; test: Growth assay in CDM medium, SSI-1; format: cell-based, Streptococcus pyogenes; settings: 100 µM compound, 0.5% maltotetraose plus 0.1% glucose
Method: as §3, §4

T1 sequence (A0A0H2UUQ6 entry or part of it): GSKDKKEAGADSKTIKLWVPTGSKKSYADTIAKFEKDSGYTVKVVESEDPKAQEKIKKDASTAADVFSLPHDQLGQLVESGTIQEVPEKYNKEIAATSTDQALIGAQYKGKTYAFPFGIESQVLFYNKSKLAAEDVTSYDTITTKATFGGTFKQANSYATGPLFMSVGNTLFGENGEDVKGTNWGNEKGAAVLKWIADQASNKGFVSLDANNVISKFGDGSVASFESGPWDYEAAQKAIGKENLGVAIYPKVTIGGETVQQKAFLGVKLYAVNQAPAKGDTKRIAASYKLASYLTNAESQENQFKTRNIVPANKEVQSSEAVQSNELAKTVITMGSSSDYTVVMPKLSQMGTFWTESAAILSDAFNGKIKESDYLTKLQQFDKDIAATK

Molecule: Cc1ccc(-c2nnc3c4ccccc4c(C)nn23)cc1NC(=O)CN1CCCCC1 [95186a]
- concentration-dependent response by MST [1]: no change

Molecule: Cc1nn2c(-c3cccc(NC(=O)CN4CCOCC4)c3)nnc2c2ccccc12 [95186b]
- concentration-dependent response by SPR (derivatives, cross-validation) [2]: observed concentration-dependent responses
- concentration-dependent response by MST [1]: concentration-dependent response change
- Kd [1]: 67.1 µM
- concentration-dependent response changes by MST with MalE1 [3]: No concentration-dependent response changes were detected
- GAS growth ([4]; 100 µM compound): suppressed GAS growth

Molecule: CCC(=O)Nc1cccc(-c2nnc3c4ccccc4c(C)nn23)c1 [95186c]
- concentration-dependent response by SPR (derivatives, cross-validation) [2]: observed concentration-dependent responses
- concentration-dependent response by MST [1]: concentration-dependent response change
- Kd [1]: 71.7 µM
- concentration-dependent response changes by MST with MalE1 [3]: No concentration-dependent response changes were detected
- GAS growth ([4]; 100 µM compound): suppressed GAS growth

Molecule: Cc1nn2c(-c3cccc(NC(=O)c4ccco4)c3)nnc2c2ccccc12 [95186d]
- concentration-dependent response by MST [1]: concentration-dependent response change
- initial optical density at 600 nm (OD600) values ([4]; 100 µM in CDM with maltotetraose): high because of aggregation of the compounds in the medium as well as bacterial growth

Molecule: Cc1nn2c(-c3cccc(NC(=O)c4ccccc4)c3)nnc2c2ccccc12 [95186e]
- concentration-dependent response by MST [1]: no change

Molecule: Cc1nn2c(-c3cccc(NC(=O)COc4ccccc4)c3)nnc2c2ccccc12 [95186f]
- concentration-dependent response by MST [1]: no change

Molecule: Cc1nn2c(-c3cccc(NC(=O)CSc4nc5ccccc5o4)c3)nnc2c2ccccc12 [95186g]
- concentration-dependent response by MST [1]: no change

Molecule: O=C(CN1CCCCC1)Nc1cccc(C(=O)Nc2cccc(C(F)(F)F)c2)c1 [95186h]
- concentration-dependent response by MST [1]: no change

Molecule: Cc1nn2c(-c3cccc(NC(=O)CN4CCCCC4)c3)nnc2c2ccccc12 [compound 95186]
- ΔTm at 100 µM ([5]; 100 µM compound, 2 µM SPs0871, hit criterion > 0.4 °C, read-out: DSF activity value (Tm with compound minus highest negative control Tm in the same plate)): 0.6 °C
- SPR activity value (molecular weight corrected relative response) ([6]; 100 µM compound, maltotriose response = 100, running buffer = 0, hit criterion ≥ 60): 162
- concentration dependence of the binding by SPR ([6]; 3.125–50 µM, three independent experiments): concentration-dependent increase in response was reproducibly observed
- concentration-dependent response by MST [1]: showed a concentration-dependent response
- Kd [1]: 44.7 µM
- MST response in the presence of maltotriose (competition) ([1]; 60 µM maltotriose): concentration-dependent response disappeared
- MST response change upon binding to SPs0871 alanine mutants [7]: Only the W256A mutation attenuated the response change upon the binding
- concentration-dependent response changes by MST with MalE1 [3]: No concentration-dependent response changes were detected
- growth inhibition potential compared among compounds ([4]; 100 µM compound): highest growth inhibition potential
- GAS growth ([4]; 100 µM compound): suppressed GAS growth
- concentration dependence of growth suppression ([4]; JRS4, maltotetraose medium): concentration dependent above the KD value concentration
- bactericidal or bacteriostatic effect ([4]; JRS4 exposed to compound transferred into THY medium, final OD600 0.01): bacteriostatic action
- maltodextrin dependent growth of SSI-1 [8]: suppressed the maltodexitrin dependent growth of SSI-1

Molecule: maltotriose [reference compound]
- Kd ([2]; maltotriose 0.039–20 µM, calculated from Scatchard plots, read-out: dissociation constant (KD) by SPR): 0.61 µM
- increase of the melting temperature of SPs0871 ([5]; DSF, 10 µM maltotriose): 1.2 °C
- Kd [1]: 6.2 µM
